Test [1] has as its target T1, NaDC1 (Homo sapiens, UniProt Q13183, N476A).
T1 construct: gene SLC13A2; full length, homodimer; N-terminal FLAG purified from HEK293F (structures, natural variant I550V); GFP and FLAG tagged in HEK293T for currents
T1 sequence (Q13183 1-592 N476A): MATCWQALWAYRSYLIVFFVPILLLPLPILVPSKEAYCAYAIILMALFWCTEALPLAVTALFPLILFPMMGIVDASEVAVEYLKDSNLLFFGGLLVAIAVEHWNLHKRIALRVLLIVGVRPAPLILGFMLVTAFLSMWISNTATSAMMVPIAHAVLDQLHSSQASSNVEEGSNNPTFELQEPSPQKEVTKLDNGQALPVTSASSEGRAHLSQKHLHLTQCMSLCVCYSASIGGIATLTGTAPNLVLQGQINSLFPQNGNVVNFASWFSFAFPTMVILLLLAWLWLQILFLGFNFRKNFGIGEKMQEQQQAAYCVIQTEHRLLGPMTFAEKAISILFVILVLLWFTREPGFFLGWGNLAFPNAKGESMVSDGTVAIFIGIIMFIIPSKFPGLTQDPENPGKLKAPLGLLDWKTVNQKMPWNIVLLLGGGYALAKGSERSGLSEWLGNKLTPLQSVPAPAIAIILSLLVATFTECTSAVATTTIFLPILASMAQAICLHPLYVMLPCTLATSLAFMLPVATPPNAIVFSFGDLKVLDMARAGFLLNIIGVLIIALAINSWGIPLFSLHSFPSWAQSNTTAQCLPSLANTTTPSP
Nature of the test: CD thermal melting at […] nm. As to conditions: absolute Tm in presence of citrate, not a shift. Format: binding.

Test [2] deals with T2, NaDC1 (Homo sapiens, UniProt Q13183, R108A).
T2 construct: gene SLC13A2; full length, homodimer; N-terminal FLAG purified from HEK293F (structures, natural variant I550V); GFP and FLAG tagged in HEK293T for currents
T2 sequence (Q13183 1-592 R108A): T1 sequence (Q13183 1-592 N476A) with R108A, A476N
Put plainly: whole-cell patch clamp, transfected HEK293T. As to conditions: citrate-induced current; 140 mM NaCl bath, pH 7.4. Format: cell-based. (In patch-clamp work, channel activity is measured electrically.)

The target of test [3] is T3, NaDC1 (Homo sapiens, UniProt Q13183, S140A).
T3 construct: gene SLC13A2; full length, homodimer; N-terminal FLAG purified from HEK293F (structures, natural variant I550V); GFP and FLAG tagged in HEK293T for currents
T3 sequence (Q13183 1-592 S140A): T1 sequence (Q13183 1-592 N476A) with S140A, A476N
Nature of the test: CD thermal melting at […] nm. Format: binding. As to conditions: absolute Tm in presence of citrate, not a shift.

Test [4] has as its target T4, NaDC1 (Homo sapiens, UniProt Q13183, N141A).
T4 construct: gene SLC13A2; full length, homodimer; N-terminal FLAG purified from HEK293F (structures, natural variant I550V); GFP and FLAG tagged in HEK293T for currents
T4 sequence (Q13183 1-592 N141A): T1 sequence (Q13183 1-592 N476A) with N141A, A476N
Put plainly: CD thermal melting at […] nm. Type of test: binding. As to conditions: absolute Tm in presence of citrate, not a shift.

These results are taken from paper PMC10980263, “Cryo-EM structures of the human NaS1 and NaDC1 transporters revealed the elevator transport and allosteric regulation mechanism” (Science Advances, 2024).

Positions count from the first letter of the chain named.

On to `O=C(O)CC(O)(CC(=O)O)C(=O)O` [citrate], for which the Tm on NaDC1 [1] is 60.5 ± 0.7 °C; at NaDC1 [3], 57.1 ± 0.7 °C; at NaDC1 [4] it was 61.3 ± 0.5 °C. The “whole-cell patch clamp, transfected HEK293T” value at NaDC1 [2] is on record as “The R108A mutant substantially reduced the citrate-induced current than WT in NaDC1”.
